According to patent US6670391B2, “Benzopyran derivative and antiallergic agent” (Dainippon Ink and Chemicals, Inc., priority 2001, dated 2003):
Where two headings read alike, the source gives them in different places.

System: male Hartley guinea pigs actively sensitized with egg-white albumin
Assay: Antiallergic Test due to Antigen-Induced Immediate Type Airway Reaction and Delayed Type Airway Reaction
Type: in vivo
Conditions: Cavia porcellus, po, 10 mg/kg orally once one hour before induction (prednisolone 10 mg/kg orally twice, 16 hours and 2 hours before)
Protocol: Using an ultrasonic nebulizer (NE-U12, manufactured by OMRON Corporation), male Hartley guinea pigs (aged six weeks) were actively sensitized by consecutive 8-day inhalation of a 1 wt % physiological saline of egg-white albumin for 10 minutes a day. After one week passed since the final sensitization, an asthmatic disease state was induced by inhalation of a 2 wt % physiological saline of egg-white albumin for 5 minutes in the same manner. To inhibit the synthesis of endogenous steroid, metyrapone (10 mg/kg) was intravenously administered at 24 hours and one hour before the induction. To inhibit anaphylactic shock, pyrilamine (10 mg/kg) was intraperitoneally administered 30 minutes before inducing the asthmatic reaction.
After inducing the asthmatic reaction, the airway resistance (specific airway resistance Raw) was measured for 1 minute before inducing the asthmatic reaction, and 1 minute, 2 hours, 4 hours, 5 hours, 6 hours, 7 hours, 8 hours, and 23-24 hours after inducing the asthmatic reaction, using an airway resistance measuring apparatus (Pulmos-I, manufactured by M.I.P.S.). An average value of the airway resistance was determined, and an airway resistance increase ratio with respect to the value of the airway resistance before the induction was calculated by the following Equation 1.
Each of the test substances (10 mg/kg) listed in Table 1 was suspended in an aqueous 0.5% methyl cellulose solution, and the suspension was orally administered once one hour before inducing the asthmatic reaction. A positive control substance (prednisolone) was orally administered twice at a dosage of 10 mg/kg 16 hours and 2 hours before inducing the asthmatic reaction. The test was carried out on 8 animals per group.
According to this test procedure, a two-phase increase in airway resistance was observed immediately after inducing the asthmatic reaction and after 4-8 hours passed since inducing the asthmatic reaction. In the present invention, the former increase in airway resistance is referred to as the immediate type asthmatic reaction, while the latter increase in airway resistance is referred to as the delayed type asthmatic reaction. With respect to the evaluation of the drug, for the immediate type asthmatic reaction, the inhibition percentage with respect to the asthmatic reaction inhibiting medium administration group (referring to the group wherein a test drug is not administered after inducing the asthmatic reaction, hereinafter merely referred to as the “medium administration group”) was determined by Equation 2 using the airway resistance increase ratio after one minute gas passed since the induction as an index.
For the delayed type asthmatic reaction, the inhibition percentage with respect to the medium administration group was determined by the following Equation 3 using the area under the curve (AUC4-8) of the airway resistance increase ratio up to 4-8 hours after inducing the asthmatic reaction as an index. As an example, the relationship between the airway resistance increase ratio up to 4-8 hours after inducing the asthmatic reaction of the delayed type asthmatic reaction and time in the medium administration group, the prednisolone administration group, and the compound (216) administration group is shown in FIG. 1. As used herein, the area under the curve showing the relationship between the airway resistance increase ratio and time is (AUC4-8)
Airway resistance increase ratio (%)=(airway resistance after inducing the asthmatic airway resistance−airway resistance before inducing the asthmatic reaction)/(airway resistance before inducing the asthmatic reaction)×100
Inhibition (%)=(1−airway resistance increase ratio after one minute has passed since inducing the asthmatic reaction of the test substance administration group/airway resistance increase ratio after one minute has passed since inducing the asthmatic reaction of the medium administration group)×100 […]

[1] = 1 min, airway resistance increase ratio one minute after induction vs medium administration group, read-out: Inhibition (%) against immediate type allergy
[2] = AUC4-8 of airway resistance increase ratio 4-8 hours after induction vs medium administration group, read-out: Inhibition (%) against delayed type allergy

CCCCCCOc1c(O)c2c(OCC(=O)O)cccc2oc1=O [Compound (65), 3-hexyloxy-4-hydroxy-5-hydroxycarbonylmethoxy-2H-1-benzopyran-2-one]
inhibition in vivo at 10 mg/kg [1]: 21.5%
inhibition in vivo at 10 mg/kg [2]: 60.2%

CCCCCCCCOc1c(O)c2cccc(OCCC(=O)O)c2oc1=O [Compound (390), 3-octyloxy-4-hydroxy-8-(2-hydroxycarbonylethoxy)-2H-1-benzopyran-2-one]
inhibition in vivo at 10 mg/kg [1]: 29.7%
inhibition in vivo at 10 mg/kg [2]: 61.1%

CCCCCCOc1c(O)c2ccc(OCCO)cc2oc1=O [Compound (210), 3-hexyloxy-4-hydroxy-7-(2-hydroxyethoxy)-2H-1-benzopyran-2-one]
inhibition in vivo at 10 mg/kg [1]: 14.2%
inhibition in vivo at 10 mg/kg [2]: 71.4%

COc1ccc2c(O)c(O)c(=O)oc2c1 [Comparative Compound (1), 3,4-dihydroxy-7-methoxy-2H-1-benzopyran-2-one, reference compound]
inhibition in vivo at 10 mg/kg [1]: 5.7%
inhibition in vivo at 10 mg/kg [2]: 21.9%

CCCCCCOc1c(O)c2cc(OCCO)ccc2oc1=O [Compound (109), 3-hexyloxy-4-hydroxy-6-(2-hydroxyethoxy)-2H-1-benzopyran-2-one]
inhibition in vivo at 10 mg/kg [1]: 14%
inhibition in vivo at 10 mg/kg [2]: 66.8%

CCCCCCOc1c(O)c2cc(OCC(=O)O)ccc2oc1=O [Compound (166), 3-hexyloxy-4-hydroxy-6-hydroxycarbonylmethoxy-2H-1-benzopyran-2-one]
inhibition in vivo at 10 mg/kg [1]: 23.5%
inhibition in vivo at 10 mg/kg [2]: 64.1%

CCCCOc1ccc2c([C@@H]3O[C@H](CO)[C@@H](O)[C@H](O)[C@H]3O)c(O)c(=O)oc2c1 [Comparative Compound (5), 7-butoxy-3-hydroxy-4-(β-D-glucopyranosyl)-2H-1-benzopyran-2-one, reference compound]
inhibition in vivo at 10 mg/kg [1]: 6.8%
inhibition in vivo at 10 mg/kg [2]: 22.4%

CCCCCCCCOc1c(O)c2cc(OCCO)ccc2oc1=O [Compound (115), 3-octyloxy-4-hydroxy-6-(2-hydroxyethoxy)-2H-1-benzopyran-2-one]
inhibition in vivo at 10 mg/kg [1]: 31.8%
inhibition in vivo at 10 mg/kg [2]: 61.7%

CCCCCCOc1c(O)c2ccc(OCCC(=O)O)cc2oc1=O [Compound (288), 3-hexyloxy-4-hydroxy-7-(2-hydroxycarbonylethoxy)-2H-1-benzopyran-2-one]
inhibition in vivo at 10 mg/kg [1]: 13.4%
inhibition in vivo at 10 mg/kg [2]: 59.1%

CCCCCCCCCCOc1ccc2c(O)c(OC)c(=O)oc2c1 [Comparative Compound (2), 3-methoxy-4-hydroxy-7-decyloxy-2H-1-benzopyran-2-one, reference compound]
inhibition in vivo at 10 mg/kg [1]: 6.5%
inhibition in vivo at 10 mg/kg [2]: 20.2%

CC(C)=CCC/C(C)=C/COc1c(O)c2ccc(OCCO)cc2oc1=O [Compound (226), 3-geranyloxy-4-hydroxy-7-(2-hydroxyethoxy)-2H-1-benzopyran-2-one]
inhibition in vivo at 10 mg/kg [1]: 22.8%
inhibition in vivo at 10 mg/kg [2]: 61.5%

CCCCCCOc1c(O)c2c(OCCCCC(=O)O)cccc2oc1=O [Compound (99), 3-hexyloxy-4-hydroxy-5-(4-hydroxycarbonylbutoxy)-2H-1-benzopyran-2-one]
inhibition in vivo at 10 mg/kg [1]: 14.6%
inhibition in vivo at 10 mg/kg [2]: 61.9%

CCCCCCOc1c(O)c2c(OCCCO)cccc2oc1=O [Compound (29), 3-hexyloxy-4-hydroxy-5-(3-hydroxypropyloxy)-2H-1-benzopyran-2-one]
inhibition in vivo at 10 mg/kg [1]: 15.8%
inhibition in vivo at 10 mg/kg [2]: 60.9%

COc1ccc2c(O)c([C@@H]3O[C@H](CO)[C@@H](O)[C@H](O)[C@H]3O)c(=O)oc2c1 [Comparative Compound (4), 7-methoxy-4-hydroxy-3-(β-D-glucopyranosyl)-2H-1-benzopyran-2-one, reference compound]
inhibition in vivo at 10 mg/kg [1]: 4.7%
inhibition in vivo at 10 mg/kg [2]: 20.5%

CCCCCCCCOc1c(O)c2ccc(OCC(O)CO)cc2oc1=O (stereo not drawn) [Compound (249), 3-octyloxy-4-hydroxy-7-(2,3-dihydroxypropyloxy)-2H-1-benzopyran-2-one]
inhibition in vivo at 10 mg/kg [1]: 28.8%
inhibition in vivo at 10 mg/kg [2]: 63.4%

CCCCOc1c(O)c2ccc(OCCO)cc2oc1=O [Compound (207), 3-butoxy-4-hydroxy-7-(2-hydroxyethoxy)-2H-1-benzopyran-2-one]
inhibition in vivo at 10 mg/kg [1]: 8.5%
inhibition in vivo at 10 mg/kg [2]: 71.7%

CCCCCCCCCCOc1cccc2c(OCCCC)c(O)c(=O)oc12 [Comparative Compound (3), 3-hydroxy-4-butoxy-8-decyloxy-2H-1-benzopyran-2-one, reference compound]
inhibition in vivo at 10 mg/kg [1]: 5.2%
inhibition in vivo at 10 mg/kg [2]: 24.3%

CCCCCCOc1c(O)c2cccc(OCC(O)CO)c2oc1=O (stereo not drawn) [Compound (349), 3-hexyloxy-4-hydroxy-8-(2,3-dihydroxypropyloxy)-2H-1-benzopyran-2-one]
inhibition in vivo at 10 mg/kg [1]: 12.5%
inhibition in vivo at 10 mg/kg [2]: 57.2%

CCCCCCOc1c(O)c(=O)oc2cc([C@@H]3O[C@H](CO)[C@@H](O)[C@H](O)[C@H]3O)ccc12 [Comparative Compound (6), 3-hydroxy-4-hexyloxy-7-(β-D-glucopyranosyl)-2H-1-benzopyran-2-one, reference compound]
inhibition in vivo at 10 mg/kg [1]: 5.9%
inhibition in vivo at 10 mg/kg [2]: 24.1%

CCCCCCCCOc1c(O)c2ccc(OCC(=O)O)cc2oc1=O [Compound (273), 3-octyloxy-4-hydroxy-7-hydroxycarbonylmethoxy-2H-1-benzopyran-2-one]
inhibition in vivo at 10 mg/kg [1]: 32.9%
inhibition in vivo at 10 mg/kg [2]: 64.5%

CCCCCCOc1c(O)c2cccc(OCC(=O)O)c2oc1=O [Compound (368), 3-hexyloxy-4-hydroxy-8-hydroxycarbonylmethoxy-2H-1-benzopyran-2-one]
inhibition in vivo at 10 mg/kg [1]: 24.8%
inhibition in vivo at 10 mg/kg [2]: 60%

C[C@]12C=CC(=O)C=C1CC[C@@H]1[C@@H]2[C@@H](O)C[C@@]2(C)[C@H]1CC[C@]2(O)C(=O)CO [Prednisolone, prednisolone, reference compound]
inhibition in vivo at 10 mg/kg [1]: 29%
inhibition in vivo at 10 mg/kg [2]: 51.4%

CC(C)=CCC/C(C)=C/COc1c(O)c2c(OCC(=O)O)cccc2oc1=O [Compound (81), 3-geranyloxy-4-hydroxy-5-hydroxycarbonylmethoxy-2H-1-benzopyran-2-one]
inhibition in vivo at 10 mg/kg [1]: 15.4%
inhibition in vivo at 10 mg/kg [2]: 54.1%

CCCCCCOc1c(O)c2ccc(OCC(=O)O)cc2oc1=O [Compound (267), 3-hexyloxy-4-hydroxy-7-hydroxycarbonylmethoxy-2H-1-benzopyran-2-one]
inhibition in vivo at 10 mg/kg [1]: 14%
inhibition in vivo at 10 mg/kg [2]: 62.2%

CCCCCCOc1c(O)c2cc(OCC(O)CO)ccc2oc1=O (stereo not drawn) [Compound (147), 3-hexyloxy-4-hydroxy-6-(2,3-dihydroxypropyloxy)-2H-1-benzopyran-2-one]
inhibition in vivo at 10 mg/kg [1]: 19.1%
inhibition in vivo at 10 mg/kg [2]: 59.5%

CCCCCCC=COc1c(O)c2cc(OCCCCC(=O)O)ccc2oc1=O [Compound (202), 3-(1-octenyloxy)-4-hydroxy-6-(4-hydroxycarbonylbutoxy)-2H-1-benzopyran-2-one]
inhibition in vivo at 10 mg/kg [1]: 19.9%
inhibition in vivo at 10 mg/kg [2]: 57.8%

CCCCCCCCOc1c(O)c2ccc(OCCO)cc2oc1=O [Compound (216), 3-octyloxy-4-hydroxy-7-(2-hydroxyethoxy)-2H-1-benzopyran-2-one]
inhibition in vivo at 10 mg/kg [1]: 38.8%
inhibition in vivo at 10 mg/kg [2]: 72.5%

CCCCCCOc1c(O)c2cccc(OCCO)c2oc1=O [Compound (311), 3-hexyloxy-4-hydroxy-8-(2-hydroxyethoxy)-2H-1-benzopyran-2-one]
inhibition in vivo at 10 mg/kg [1]: 11.9%
inhibition in vivo at 10 mg/kg [2]: 55.4%

CCCCCCOc1c(O)c2c(OCCO)cccc2oc1=O [Compound (8), 3-hexyloxy-4-hydroxy-5-(2-hydroxyethoxy)-2H-1-benzopyran-2-one]
inhibition in vivo at 10 mg/kg [1]: 14.1%
inhibition in vivo at 10 mg/kg [2]: 58.2%

CCCCCCCCOc1c(O)c2c(OCCO)cccc2oc1=O [Compound (14), 3-octyloxy-4-hydroxy-5-(2-hydroxyethoxy)-2H-1-benzopyran-2-one]
inhibition in vivo at 10 mg/kg [1]: 32.4%
inhibition in vivo at 10 mg/kg [2]: 65.5%
